Test results reported in patent US11191736B2, “Pharmaceutical formulations containing cannabidiol and nicotine for treating smokeless tobacco addiction” (CV Sciences, Inc., priority 2016, dated 2021).

Columns and labels:
MAO-B enzyme = target: T1, MAO-B enzyme (Homo sapiens, UniProt P27338); experiment: MAO-Glo luminescent assay, MAO-B inhibition; format: biochemical; conditions: FIG. 2
T1 sequence (P27338 1-520): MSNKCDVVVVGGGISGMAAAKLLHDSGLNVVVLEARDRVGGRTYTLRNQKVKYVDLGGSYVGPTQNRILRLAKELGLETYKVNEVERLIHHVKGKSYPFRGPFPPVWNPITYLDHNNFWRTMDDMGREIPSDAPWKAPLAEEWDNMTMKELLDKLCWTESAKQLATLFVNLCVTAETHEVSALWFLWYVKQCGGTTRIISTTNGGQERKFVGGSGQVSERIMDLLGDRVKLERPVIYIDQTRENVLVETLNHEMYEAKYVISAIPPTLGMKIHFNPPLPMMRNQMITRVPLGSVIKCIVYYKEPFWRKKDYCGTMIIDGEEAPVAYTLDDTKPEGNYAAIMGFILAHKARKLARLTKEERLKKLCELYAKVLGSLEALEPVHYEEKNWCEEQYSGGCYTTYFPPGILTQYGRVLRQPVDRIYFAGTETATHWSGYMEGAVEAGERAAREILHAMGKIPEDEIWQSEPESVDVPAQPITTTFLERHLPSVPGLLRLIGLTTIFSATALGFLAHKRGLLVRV
Description: (§1) This example describes experiments for determining monoamine oxidase (MAO) inhibition activity for cannabidiol. MAOs are enzymes located on the outer membrane of mitochondria and are involved in the catabolism of monoamine neurotransmitters. There are two well-characterized isoenzymes: MAO-A, which predominantly catabolizes serotonin and norepinephrine, and MAO-B, which preferentially catabolizes benzylamine and phenylethylamine. Dopamine and tyramine are metabolized by both isoforms.
(§2) To detect the activity of MAO, a luminescent method (MAO-Glo Assay kit, from Promega, Cat #V1401) was used. In this method, a MAO substrate (a derivative of beetle luciferin provided in the kit) is mixed with the compound to be tested (in this case, myosmine and control compounds). Then, the MAO-A or MAO-B enzyme is added to the mixture and incubated with the reaction for 1 hour at room temperature. The MAO enzymes, if not inhibited by the test compound, will convert the substrate into methyl ester luciferin. Finally, a luciferin detection reagent (provided by the kit) is added (20 minutes at room temperature) to stop the MAO reaction and convert methyl ester luciferin into D-luciferin. […] The luminescent signal is measured and recorded using a luminometer.

monoamine oxidase (MAO) = conditions: Current Drug Safety, 2011, Vol. 6, No. 4; cited from earlier work
MAO-A enzyme = target: T2, MAO-A enzyme (Homo sapiens, UniProt P21397); experiment: MAO-Glo luminescent assay, MAO-A inhibition; format: biochemical; conditions: FIG. 1
T2 sequence (P21397 1-527): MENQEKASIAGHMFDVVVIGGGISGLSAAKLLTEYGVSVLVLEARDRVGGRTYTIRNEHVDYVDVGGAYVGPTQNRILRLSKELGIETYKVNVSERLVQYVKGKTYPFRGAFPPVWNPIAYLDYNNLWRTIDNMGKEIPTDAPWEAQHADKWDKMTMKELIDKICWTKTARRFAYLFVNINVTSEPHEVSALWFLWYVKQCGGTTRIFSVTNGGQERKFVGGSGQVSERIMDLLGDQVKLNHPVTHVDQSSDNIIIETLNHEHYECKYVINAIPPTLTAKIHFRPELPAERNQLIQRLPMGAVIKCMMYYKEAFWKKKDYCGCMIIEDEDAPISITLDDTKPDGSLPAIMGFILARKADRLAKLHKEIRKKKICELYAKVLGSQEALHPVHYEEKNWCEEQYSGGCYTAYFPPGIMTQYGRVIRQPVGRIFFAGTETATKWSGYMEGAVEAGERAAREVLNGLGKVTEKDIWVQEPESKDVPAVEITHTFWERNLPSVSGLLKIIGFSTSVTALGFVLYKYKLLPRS
Description: as §1, §2

[1] = at a concentration of 7.5 mM (7,500 micromolar)

Structure (SMILES): C=C(C)[C@@H]1CCC(C)=C[C@H]1c1c(O)cc(CCCCC)cc1O [CBD, 2-[(1R,6R)-3-methyl-6-(1-methylethenyl)-2-cyclohexen-1-yl]-5-pentyl-1,3-benzenediol]
- MAO-B inhibition, result in words (MAO-B enzyme; compared with MAO-A activity): also inhibits MAO-B activity, although to a lesser extent than MAO-A activity
- inhibition at 7500 µM (MAO-B enzyme; [1]): ~30%
- inhibiting monoamine oxidase (MAO) activity, prior report (monoamine oxidase (MAO)): ineffective
- MAO-A inhibition, result in words (MAO-A enzyme; compared with nornicotine): potent inhibitor of MAO-A, in fact to an even greater extent than nornicotine
- inhibition at 7500 µM (MAO-A enzyme; [1]): ~50%
